Data published in paper PMC10307805, “DprE2 is a molecular target of the anti-tubercular nitroimidazole compounds pretomanid and delamanid” (Nature Communications, 2023).

Columns and labels:
Assay type in all cases: biochemical
[1] = target: T1, DprE2 (decaprenylphosphoryl-2-keto-β-D-erythro-pentose reductase) (Mycobacterium tuberculosis, UniProt P9WGS9)
[2] = target: DprE1 (decaprenylphosphoryl-β-D-ribose oxidase) (Mycobacterium tuberculosis, UniProt P9WJF1); test: resazurin reduction fluorescence assay with GGPR (also […] on Mt-DprE1-DprE2 complex)
[3] = target: T2, Ddn (deazaflavin F420-dependent nitroreductase) (Mycobacterium tuberculosis, UniProt P9WP15)
T2 construct: recombinant Ddn, SUMO tag removed

[4] = target: T1, DprE2 (decaprenylphosphoryl-2-keto-β-D-erythro-pentose reductase); test: […]; also IC50 […] and radiolabeled DPR epimerization TLC

T1 sequence (P9WGS9 whole entry, looked up): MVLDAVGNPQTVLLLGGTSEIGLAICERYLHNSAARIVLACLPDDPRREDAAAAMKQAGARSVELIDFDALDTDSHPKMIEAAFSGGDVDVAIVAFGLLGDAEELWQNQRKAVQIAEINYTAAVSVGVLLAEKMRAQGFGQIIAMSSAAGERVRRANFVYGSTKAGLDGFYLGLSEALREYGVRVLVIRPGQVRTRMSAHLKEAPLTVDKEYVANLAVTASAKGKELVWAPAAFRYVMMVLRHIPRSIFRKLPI
Sequence of DprE1 (decaprenylphosphoryl-β-D-ribose oxidase) (P9WJF1 whole entry): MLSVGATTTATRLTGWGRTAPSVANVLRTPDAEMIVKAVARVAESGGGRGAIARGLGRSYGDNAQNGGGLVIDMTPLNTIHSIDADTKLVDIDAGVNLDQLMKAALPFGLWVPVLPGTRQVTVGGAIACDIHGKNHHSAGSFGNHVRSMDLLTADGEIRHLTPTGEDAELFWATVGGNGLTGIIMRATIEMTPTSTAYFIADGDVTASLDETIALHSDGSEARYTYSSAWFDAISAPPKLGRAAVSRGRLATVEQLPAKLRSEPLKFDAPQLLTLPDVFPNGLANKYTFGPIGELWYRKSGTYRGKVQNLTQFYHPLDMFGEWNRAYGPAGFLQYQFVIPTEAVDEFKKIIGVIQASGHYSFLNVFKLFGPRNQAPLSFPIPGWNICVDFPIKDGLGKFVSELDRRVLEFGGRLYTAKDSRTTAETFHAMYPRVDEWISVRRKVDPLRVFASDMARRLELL
T2 sequence (P9WP15 whole entry): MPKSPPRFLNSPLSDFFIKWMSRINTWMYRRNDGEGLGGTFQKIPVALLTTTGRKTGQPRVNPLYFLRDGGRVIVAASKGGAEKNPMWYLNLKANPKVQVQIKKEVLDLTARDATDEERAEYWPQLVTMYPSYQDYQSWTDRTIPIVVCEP

NC(=O)C1=CN([C@@H]2O[C@H](COP(=O)(O)OP(=O)(O)OC[C@H]3O[C@@H](n4cnc5c(N)ncnc54)[C@H](OP(=O)(O)O)[C@@H]3O)[C@@H](O)[C@H]2O)C=CC1 [NADPH]
NADPH oxidation fluorescence assay with NADPH titration [1]: DprE2 activity was monitored through a change in fluorescence due to the oxidation of the DprE2 cofactor, NADPH

BTZ
IC50 [2]: 11.8 ± 0.7 µM

O=[N+]([O-])c1cn2c(n1)OC[C@@H](OCc1ccc(OC(F)(F)F)cc1)C2 [pretomanid]
pro-drug activation by purified Ddn with Fgd1/F420, read out by DprE2 inhibition [3]: upon activation of the pretomanid by Ddn, there was a dose-dependent reduction in Mt-DprE2 activity

Ddn-activated pretomanid
Ki [4]: 1.5 ± 0.4 µM
